The target of one experiment is T1, guinea pig ileum (Cavia porcellus, UniProt Q2NNR5).
T1 construct: from tissue; host or cells: guinea pig ileum segments
T1 sequence (Q2NNR5 1-340): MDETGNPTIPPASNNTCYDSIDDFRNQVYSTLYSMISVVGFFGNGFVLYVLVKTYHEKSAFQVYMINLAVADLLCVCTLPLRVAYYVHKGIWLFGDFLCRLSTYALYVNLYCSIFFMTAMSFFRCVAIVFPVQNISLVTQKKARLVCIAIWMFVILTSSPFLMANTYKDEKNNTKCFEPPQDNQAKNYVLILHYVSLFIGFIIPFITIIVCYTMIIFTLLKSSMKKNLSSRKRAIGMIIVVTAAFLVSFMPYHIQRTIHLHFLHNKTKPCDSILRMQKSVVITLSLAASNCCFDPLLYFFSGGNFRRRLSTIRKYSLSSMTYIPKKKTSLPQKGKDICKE
The experiment is described as follows: LTD4 antagonism in guinea pig ileum (contraction). The following applies: for Kb: read-out: Guinea Pig Ileum Contraction pA2 (converted). The procedure: Fresh segments of guinea pig ileum were suspended in 2 ml. tissue baths containing oxygenated modified Tyrodes solution. […] The ileum segments were washed and rested between exposures to agonist. Following this, the tissues were incubated with a single concentration of test compound and the agonist dose-response procedure was repeated. The dose ration is a measure of the antagonist's ability to shift the agonist dose-response curve to the right. It is derived as the concentration of agonist necessary to reach a given response level in the present (A') versus the absence (A) of antagonist. For example, if the test concentration of compound had no effect on the agonist-induced response (A'=A) the dose-ratio would approximate 1. […] One dose-ratio value is determined for each strip of ileum used to test antagonist. […] Schild analysis examines the linearity of the function described by the dose-ratios written as log (A'/A) versus antagonist concentration. If linearity is confirmed and the slope approximates -1, inhibition is considered to be competitive. […] This value is considered to be a measure of the affinity of the competitive antagonist.

Experiment [1] concerns human neutrophils. The experiment is described as follows: Human neutrophil degranulation assay (LTB4-induced, myeloperoxidase release). The following applies: Table 1, LTB4 (5×10^-8 M). The format is cell-based. The procedure: Neutrophils were purified from venous blood of normal human donors using standard techniques of dextran sedimentation, centrifugation on Ficoll-paque® (Pharmacia) or Histopaque® sterile solution (Sigma) and hypotonic lysis of erythrocytes (Boyum, A., Isolation of Leukocytes From Human Blood: Further Observations. Scand. J. Lab. Clin. Invest., 21 (Suppl. 97): 31, 1968). The purity of isolated neutrophils was >95%.
Neutrophil degranulation was determined by measuring the release of myeloperoxidase activity into the incubation medium. Neutrophils (3×10^6) in 1 ml HBSS solution were preincubated with cytochalasin B (5 μg) at 37° C. for 5 minutes, followed by preincubation with test compounds for 7 minutes. Neutrophils were then incubated for 2 to 20 minutes with either LTB4 (5×10^-8 M) or the chemotactic peptide f-met-leu-phe (5×10^-6 M) to induce degranulation. Following incubation, samples were centrifuged and myeloperoxidase was extracted from the cell pellets by sonication in phosphate buffer containing 0.4% Triton X-100. Triton X-100 was also added to the supernatants to a concentration of 0.4%. The supernatants and the pellet - extracts were then assayed spectrophotometrically for myeloperoxidase activity by determining the rate of decomposition of H2 O2 with o-dianisidine as hydrogen donor as described by Renlund, et al. (Renlund, D. G., MacFarlane, J. L., Christensen, R. D., Lynch, R. E., and Rothstein, G., A Quantitative And Sensitive Method For Measurement Of Myeloperoxidase, Clinical Research 28:75A, 1980). Myeloperoxidase activity released into the supernatant was expressed as the percent of the average total activity (pellet plus supernatant).

A further experiment concerns the target T2, LTB4 receptor (Homo sapiens, UniProt Q15722).
T2 construct: Neutrophils were purified from venous blood of normal human donors; endogenous in cells; host or cells: purified human blood neutrophils (intact cells)
Nature of the experiment: LTB4 receptor binding assay ((3H) LTB4, human neutrophils). Conditions: Table 1. The procedure: Neutrophils (4-6×10^6) in 1 ml Hanks' balanced salt solution containing 10 mM HEPES buffer (HBSS), pH 7.4 and 30 μM nordihydroguaiaretic acid were incubated with 0.6×10^-9 M (^3 H) LTB4 in the presence or absence of test compounds. The incubation was carried out at 0° C. for 45 minutes and terminated by adding 5 ml of ice-cold HBSS followed by rapid filtration of incubation mixture under vacuum through GF/C glass fiber filters. The filters were further washed with 10 ml HBSS and radioactivity was determined. Specific binding was defined as the difference between total binding and nonspecific binding which was not displaced by 10^-7 M unlabeled LTB4. All data refer to specific binding.

The target of another experiment is T3, LTD4 receptor (Cavia porcellus, UniProt Q2NNR5).
T3 construct: from tissue; host or cells: lung membranes of male Hartley guinea pigs
T3 sequence (Q2NNR5 1-340): T1 sequence (Q2NNR5 1-340)
Nature of the experiment: LTD4 receptor binding assay using guinea pig lung membrane preparations. The following applies: for Receptor Binding LTD4 IC50: Table 1, results are from Table 3, 10^-5 M. The procedure: MEMBRANE PREPARATIONS: For each membrane preparation, 10-11 male Hartley guinea pigs, weighing less than 350 gm, were sacrificed by guillotine. The lungs were rapidly removed and placed in ice-cold 50 mM Trisma 7.0 buffer. After all the lungs were collected, each was probed free of bronchial tissue to at least the level of tertiary branching as observed through a dissecting lamp. The tissue was minced with a razor blade on a damp paper towel and placed into fresh ice-cold Trisma 7.0 buffer. When all the tissues had been processed, they were pooled, drained and weighed. Nine volumes of cold buffer were added and the tissue was polytroned for 6-10 second bursts with a 1 minute cool down period in an ice bath between each burst. The homogenate was filtered through a gauze pad and centrifuged at 1085× g for 15 minutes at 4° C. Supernatants were saved and centrifuged at 40,000× g for 20 minutes at 4° C. This time, supernatants were discarded and the pellets were resuspended in 30-35 ml fresh Trisma 7.0 buffer by 1-10 second bursts with the polytron. The materials were centrifuged again at 40,000× g. Supernatants were again discarded. Each pellet was resuspended again with approximately 7 ml buffer. All this material was pooled into a 100 ml polypropylene container and stirred with a magnetic stirring bar. The tubes were rinsed with small amounts of buffer and the rinse was added to the membrane preparation. The homogenized membranes were aliquoted into 1.5 ml microfuge tubes and frozen at -70° C. Three aliquots were submitted for protein determinations by FPB (fluorescamine protein binding) assay.
Unless otherwise indicated, all binding experiments were performed in a final incubation volume of 250 μl. […] Both materials were received in solutions. […] Both solutions were brought to appropriate assay concentrations by dilution in assay buffer consisting of 50 mM Trisma 7.4 with 5 mM L-cysteine and 20 mM CaCl2. Membranes were also diluted with this assay buffer. […] Diluent was added to all other appropriate control tubes. Incubations were conducted for 30 minutes at 25° C. in a shaking water bath. Termination of the reaction was achieved by pouring the incubate over 2.5 cm Whatman GF/C filters soaked in assay buffer and set over the ports of Millipore filter vacuum manifolds. Filters were rinsed with 4 ml ice cold assay buffer 3 times. The filters were removed, placed in 10 ml Aquasol scintillation cocktail and allowed to cool in the dark for 2 hours prior to counting. All samples were corrected for background and isotope decay before converting DPM determination to mass.
These values were logit-transformed and linear regression was performed on the dose-response data. All dose-response sets used to calculate IC50 values contained data from 3-6 compound concentrations. […] IC50 values were calculated from the regression equation for the line.
male guinea pig lung homogenate which was aliquoted and stored at
-70° C. The particular preparation used to test the compounds of
Protein concentrations in these assays were adjusted
to provide aproximately 0.1 nM receptor in the presence of lnM ^3
HLTD4. Incubation was conducted for 30 min.
at 24° C. and filtration methods were used to separate bound from
tested were intially solubilized in DMSO. Each compound was evaluated at
dose of 10 μM (10^-5 M) in triplicate in 2 separate assays. The

Experiment [2] concerns human neutrophils. The experiment is described as follows: Modified Boyden chamber chemotaxis (LTB4, human neutrophils). Conditions: Neutrophil. The format is cell-based. The procedure:
Human neutrophils were isolated from citrated peripheral blood using standard techniques of dextran sedimentation, followed by centrifugation on Histopaque® sterile solution (Sigma) or Ficoll-paque® (Pharmacia) and hypotonic lysis of erythrocytes. A final cell suspension of 3.4×10^6 neutrophils/ml of HEPES-buffered Hanks balanced salt solution (HBSS, pH 7.3) was added to the upper well (0.8 ml) of a modified Boyden chamber (blind well). The lower well (0.2 ml), separated by a polycarbonate membrane (Nuleopore Corp.), contained HBSS or 3×10^-8 M LTB4 in the presence of absence of test compound. Following a 90 minute incubation at 37° C. in 5% CO2 -95% air, cells from the lower well were lysed and nuclei counted in a Model S-Plus-IV Coulter Counter. Percent inhibition was calculated from cell counts corrected for random migration by subtracting the mean of the HBSS control.

Setting [3] is: read-out: LTD4 Receptor Binding Activity.
[4] abbreviates: read-out: LTD4 Receptor Binding Percent Inhibition, Test #1, triplicate, 30 min, 24° C.
The mark [5] stands for this setting: read-out: LTD4 Receptor Binding Percent Inhibition, Test #2, triplicate, 30 min, 24° C.

Where two headings read alike, the source gives them in different places.

For orientation: IC50 means the midpoint of a concentration-inhibition curve. A lower IC50 goes with higher potency.

T2 sequence (Q15722 whole entry): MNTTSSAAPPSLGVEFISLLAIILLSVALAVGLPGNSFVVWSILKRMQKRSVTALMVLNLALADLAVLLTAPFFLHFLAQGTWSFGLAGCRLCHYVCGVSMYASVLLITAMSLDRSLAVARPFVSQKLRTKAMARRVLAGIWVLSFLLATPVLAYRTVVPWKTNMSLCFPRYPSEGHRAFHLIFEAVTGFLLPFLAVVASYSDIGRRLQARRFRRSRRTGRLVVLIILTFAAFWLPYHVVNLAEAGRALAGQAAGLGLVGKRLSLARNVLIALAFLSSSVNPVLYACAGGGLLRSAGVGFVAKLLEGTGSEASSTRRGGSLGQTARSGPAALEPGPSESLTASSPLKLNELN

For `CCCc1c(OCCCOc2ccc(C(C)=O)c(OC)c2CCC)ccc2c1OC(CCC(=O)O)CC2` (stereo not drawn) [Example 20, 7-[3-(4-acetyl-3-methoxy-2-propylphenoxy)propoxy]-3,4-dihydro-8-propyl-2H-1-benzopyran-2-propanoic acid], the Kb on guinea pig ileum is 316 nM. Further, the IC50 in the experiment with human neutrophils [1] came out at 40 nM; at LTB4 receptor it was 500 nM; with human neutrophils [2], 1700 nM. Further, the “Receptor Binding LTD4 IC50” value at LTD4 receptor is reported as “Inactive”. Further, the values for the inhibition at 10 µM on LTD4 receptor (setting [3]), at LTD4 receptor (setting [4]) and at LTD4 receptor (setting [5]) were less than 45%, 13% and 23.5%, respectively.
For `CCCc1c(OCCCCCOc2ccc(C(C)=O)c(OC)c2CCC)ccc2c1OC(C(=O)O)CC2` (stereo not drawn) [Example 15, 7-[[5-(4-acetyl-3-methoxy-2-propylphenoxy)pentyl]oxy]-3,4-dihydro-8-propyl-2H-1-benzopyran-2-carboxylic acid], the “Guinea Pig Ileum Contraction pA2” value at guinea pig ileum (Table 2, LTD4 agonist) was “Inactive”. Besides, the 50% inhibitory concentration (IC50) in the experiment with human neutrophils [1] came to 1500 nM; at LTB4 receptor, 500 nM; in the experiment on human neutrophils [2], 6600 nM.
As for `CCCc1c(OCCCOc2ccc3c(=O)cc(C(=O)O)oc3c2CCC)ccc(C(C)=O)c1OC` [Example 7, 7-[3-(4-acetyl-3-methoxy-2-propylphenoxy)propoxy]-4-oxo-8-propyl-4H-1-benzopyran-2-carboxylic acid], on guinea pig ileum, the Kb was 182 nM. Besides, the concentration for half-maximal inhibition (IC50) is 3700 nM with human neutrophils [1], 500 nM on LTB4 receptor and 3600 nM in the experiment with human neutrophils [2]. For the same molecule, at LTD4 receptor, the “Receptor Binding LTD4 IC50” value is reported as “Inactive”. Also, the inhibition at 10 µM on LTD4 receptor (setting [3]) was less than 45%; on LTD4 receptor (setting [4]) it was 28.9%; at LTD4 receptor (setting [5]), 34.4%.
With `CCCc1c(OCCCOc2ccc3c(c2CCC)OC(C(=O)O)CC3)ccc(C(C)=O)c1O` (stereo not drawn) [reference compound], the Kb on guinea pig ileum was 25.1 nM.
